This note sets out measurements from PubChem BioAssay (NCI).

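Dose response: 5 concentrations. Exposure: 48 h. Format: 96-well plates. Endpoint: linear interpolation; highest concentration if not reached. TGI: total growth inhibition.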 Some results are limits rather than exact numbers.

The subject of the first assay is OVCAR-3 ovarian. Put plainly: NCI tumour cell line growth inhibition, 48 h.
Turning to `NC1=NN(c2ccccc2)C(=O)C1C(=O)CCC(=O)Nc1cccc(Cl)c1` (stereo not drawn), the TGI is more than 100 µM.
`COc1cc(NS(=O)(=O)c2ccc(C)cc2)c2nccnc2c1` showed a TGI of more than 100 µM.

Another assay deals with HT29 colon. Put plainly: NCI tumour cell line growth inhibition, 48 h.
For the compound `NC1=NN(c2ccccc2)C(=O)C1C(=O)CCC(=O)Nc1cccc(Cl)c1` (stereo not drawn), the TGI is more than 100 µM.
Same read-out and setting: next, `N#C/C(=C/c1cccc(Oc2ccccc2)c1)c1ccccc1`: more than 100 µM.
As for `COc1cc(NS(=O)(=O)c2ccc(C)cc2)c2nccnc2c1`, the TGI was more than 100 µM.

The test system of the next assay is HOP-92 NSCLC. Description: NCI tumour cell line growth inhibition, 48 h.
With `NC1=NN(c2ccccc2)C(=O)C1C(=O)CCC(=O)Nc1cccc(Cl)c1` (stereo not drawn), the TGI was more than 100 µM.
The same measure, in the same setting: next, `N#C/C(=C/c1cccc(Oc2ccccc2)c1)c1ccccc1`: more than 100 µM.
The compound `COc1cc(NS(=O)(=O)c2ccc(C)cc2)c2nccnc2c1` displayed a TGI of more than 100 µM.

For the next assay, the system named is HCT-116 colon. Put plainly: NCI tumour cell line growth inhibition, 48 h.
`NC1=NN(c2ccccc2)C(=O)C1C(=O)CCC(=O)Nc1cccc(Cl)c1` (stereo not drawn) came in with a TGI of more than 100 µM.
Turning to `N#C/C(=C/c1cccc(Oc2ccccc2)c1)c1ccccc1`, the TGI was more than 100 µM.
With `O=c1oc(-c2ccccc2)cn1-c1ccccc1`, the TGI is more than 100 µM.

A further assay relates to SNB-78 CNS. Description: NCI tumour cell line growth inhibition, 48 h.
Compound `NC1=NN(c2ccccc2)C(=O)C1C(=O)CCC(=O)Nc1cccc(Cl)c1` (stereo not drawn) returned a TGI of more than 100 µM.
Same read-out and setting: next, `N#C/C(=C/c1cccc(Oc2ccccc2)c1)c1ccccc1`: more than 100 µM; `O=c1oc(-c2ccccc2)cn1-c1ccccc1`: more than 100 µM.

The subject of the next assay is 786-0 renal. Description: NCI tumour cell line growth inhibition, 48 h.
Consider `NC1=NN(c2ccccc2)C(=O)C1C(=O)CCC(=O)Nc1cccc(Cl)c1` (stereo not drawn), for which the TGI was more than 100 µM.
In the case of `N#C/C(=C/c1cccc(Oc2ccccc2)c1)c1ccccc1`, the TGI was more than 100 µM.
Still for that read-out and setting: under `COc1cc(NS(=O)(=O)c2ccc(C)cc2)c2nccnc2c1` stands more than 100 µM; under `O=c1oc(-c2ccccc2)cn1-c1ccccc1`, more than 100 µM.

For the next assay, the system named is SK-MEL-5 melanoma. Description: NCI tumour cell line growth inhibition, 48 h.
Regarding `NC1=NN(c2ccccc2)C(=O)C1C(=O)CCC(=O)Nc1cccc(Cl)c1` (stereo not drawn), the TGI was more than 100 µM.
On the same count and under the same terms, next, `N#C/C(=C/c1cccc(Oc2ccccc2)c1)c1ccccc1`: more than 100 µM; `COc1cc(NS(=O)(=O)c2ccc(C)cc2)c2nccnc2c1`: 63.7 µM.

For another assay, the system named is SN12C renal. Put plainly: NCI tumour cell line growth inhibition, 48 h.
In turn, `NC1=NN(c2ccccc2)C(=O)C1C(=O)CCC(=O)Nc1cccc(Cl)c1` (stereo not drawn) returned a TGI of more than 100 µM.
Same read-out and setting: next, `N#C/C(=C/c1cccc(Oc2ccccc2)c1)c1ccccc1`: more than 100 µM; `COc1cc(NS(=O)(=O)c2ccc(C)cc2)c2nccnc2c1`: more than 100 µM; `O=c1oc(-c2ccccc2)cn1-c1ccccc1`: more than 100 µM.

The next assay concerns M14 melanoma. Put plainly: NCI tumour cell line growth inhibition, 48 h.
As to `NC1=NN(c2ccccc2)C(=O)C1C(=O)CCC(=O)Nc1cccc(Cl)c1` (stereo not drawn), the TGI is more than 100 µM.
On the same count and under the same terms, next, `N#C/C(=C/c1cccc(Oc2ccccc2)c1)c1ccccc1`: more than 100 µM; `COc1cc(NS(=O)(=O)c2ccc(C)cc2)c2nccnc2c1`: 35.1 µM.
Still for that read-out and setting: next, `O=c1oc(-c2ccccc2)cn1-c1ccccc1`: more than 100 µM.

The next assay relates to SF-539 CNS. Description: NCI tumour cell line growth inhibition, 48 h.
In the case of `NC1=NN(c2ccccc2)C(=O)C1C(=O)CCC(=O)Nc1cccc(Cl)c1` (stereo not drawn), the TGI was more than 100 µM.
For `N#C/C(=C/c1cccc(Oc2ccccc2)c1)c1ccccc1`, the TGI was more than 100 µM.
The same measure, in the same setting: next, `COc1cc(NS(=O)(=O)c2ccc(C)cc2)c2nccnc2c1`: 83.8 µM.
On the same count and under the same terms, next, `O=c1oc(-c2ccccc2)cn1-c1ccccc1`: more than 100 µM.

A further assay concerns RPMI-8226 leukemia. Put plainly: NCI tumour cell line growth inhibition, 48 h.
`N#C/C(=C/c1cccc(Oc2ccccc2)c1)c1ccccc1` registered a TGI of more than 100 µM.
`COc1cc(NS(=O)(=O)c2ccc(C)cc2)c2nccnc2c1` yielded a TGI of more than 100 µM.
For `O=c1oc(-c2ccccc2)cn1-c1ccccc1`, the TGI is more than 100 µM.

In the next assay the test system is HOP-18 NSCLC. Description: NCI tumour cell line growth inhibition, 48 h.
For `NC1=NN(c2ccccc2)C(=O)C1C(=O)CCC(=O)Nc1cccc(Cl)c1` (stereo not drawn), the TGI is more than 100 µM.
Regarding `N#C/C(=C/c1cccc(Oc2ccccc2)c1)c1ccccc1`, the TGI was more than 100 µM.
Consider `COc1cc(NS(=O)(=O)c2ccc(C)cc2)c2nccnc2c1`, for which the TGI is more than 100 µM.
The same measure, in the same setting: under `O=c1oc(-c2ccccc2)cn1-c1ccccc1` stands more than 100 µM.

The test system of the next assay is SNB-75 CNS. Put plainly: NCI tumour cell line growth inhibition, 48 h.
With `NC1=NN(c2ccccc2)C(=O)C1C(=O)CCC(=O)Nc1cccc(Cl)c1` (stereo not drawn), the TGI was more than 100 µM.
For `N#C/C(=C/c1cccc(Oc2ccccc2)c1)c1ccccc1`, the TGI is more than 100 µM.
Same read-out and setting: next, `COc1cc(NS(=O)(=O)c2ccc(C)cc2)c2nccnc2c1`: 78.1 µM; `O=c1oc(-c2ccccc2)cn1-c1ccccc1`: more than 100 µM.

A further assay concerns NCI-H226 lung. Description: NCI tumour cell line growth inhibition, 48 h.
In the case of `NC1=NN(c2ccccc2)C(=O)C1C(=O)CCC(=O)Nc1cccc(Cl)c1` (stereo not drawn), the TGI is more than 100 µM.
The same measure, in the same setting: under `N#C/C(=C/c1cccc(Oc2ccccc2)c1)c1ccccc1` stands more than 100 µM.
For the compound `COc1cc(NS(=O)(=O)c2ccc(C)cc2)c2nccnc2c1`, the TGI was more than 100 µM.
Same read-out and setting: under `O=c1oc(-c2ccccc2)cn1-c1ccccc1` stands more than 100 µM.
